Assay results: patent publication US8815901B2 (Novartis AG, priority 2008, dated 2014)

target: FGFR3 kinase (Homo sapiens (Human), UniProt P22607, K650E); assay: FGFR3 kinase inhibition assay (radiometric filter binding / LanthaScreen TR-FRET); assay type: biochemical; conditions: read-out: rating (FGFR3 kinase IC50)
Description: Enzyme activities were measured by mixing 10 μL of a 3-fold concentrated compound solution or control with 10 μL of the corresponding substrate mixture (peptidic substrate, ATP and [γ^33P]ATP). The reactions were initiated by addition of 10 μL of a 3-fold concentrated solution of the respective enzyme in assay buffer.
Filter binding (FB) method: FB assays were carried out in 96-well plates at room temperature for 10 min in a finial volume of 30 μL including the components as indicated in section above. […] After spotting, vacuum was connected and each well rinsed with 200 μL 0.5% H3PO4. Free membranes were removed and washed 4 times on a shaker with 1% H3PO4 and once with ethanol. Membranes were dried and overlaid with addition of 10 μL/well of a scintillation fluid. The plates were eventually sealed and counted in a microplate scintillation counter. IC50 values were calculated by linear regression analysis of the percentage inhibition of the compound.
The assay has been run at room temperature on a liquid handling robot. […] After an incubation time of 45 min in the dark, the plates were transferred into a fluorescence reader for counting.
Compounds of formula (I) are assayed to measure their capacity to inhibit FGFR3 kinase as described above.

FGFR3 kinase, sequence (P22607 23-806 K650E): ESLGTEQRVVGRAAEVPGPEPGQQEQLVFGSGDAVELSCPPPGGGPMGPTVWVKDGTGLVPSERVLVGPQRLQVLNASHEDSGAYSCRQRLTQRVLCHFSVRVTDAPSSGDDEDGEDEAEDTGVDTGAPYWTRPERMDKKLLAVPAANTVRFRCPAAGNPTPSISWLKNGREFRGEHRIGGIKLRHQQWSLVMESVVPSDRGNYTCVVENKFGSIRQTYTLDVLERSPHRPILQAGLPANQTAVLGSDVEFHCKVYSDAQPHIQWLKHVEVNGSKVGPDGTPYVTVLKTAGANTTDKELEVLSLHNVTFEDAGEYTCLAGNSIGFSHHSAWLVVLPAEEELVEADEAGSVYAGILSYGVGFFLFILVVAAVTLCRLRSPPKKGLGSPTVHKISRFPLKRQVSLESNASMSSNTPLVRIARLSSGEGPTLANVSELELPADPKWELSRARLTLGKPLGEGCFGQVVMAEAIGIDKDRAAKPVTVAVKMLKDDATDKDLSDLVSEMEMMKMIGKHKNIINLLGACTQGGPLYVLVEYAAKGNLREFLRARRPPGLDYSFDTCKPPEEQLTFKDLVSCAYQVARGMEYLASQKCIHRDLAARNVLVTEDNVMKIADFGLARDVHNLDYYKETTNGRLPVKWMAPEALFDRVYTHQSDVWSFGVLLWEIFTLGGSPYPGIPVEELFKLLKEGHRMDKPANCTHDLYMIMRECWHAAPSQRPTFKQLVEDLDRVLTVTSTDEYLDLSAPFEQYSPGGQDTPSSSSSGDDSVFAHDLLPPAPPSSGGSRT

Structure (SMILES) | IC50
COc1cc(OC)c(Cl)c(-c2ccc(C(=O)Nc3ccc(OCCN(C)C)cc3)c3nccnc23)c1Cl [Example 5, 8-(2,6-Dichloro-3,5-dimethoxy-phenyl)-quinoxaline-5-carboxylic acid [4-(2-dimethylamino-ethoxy)-phenyl]-amide] | < 100 nM
COc1cc(OC)c(Cl)c(-c2ccc(C(=O)Nc3ccc(O)cc3)c3nccnc23)c1Cl [Example 7, 8-(2,6-Dichloro-3,5-dimethoxy-phenyl)-quinoxaline-5-carboxylic acid (4-hydroxyphenyl)-amide] | 500 to 50000 nM
COc1cc(OC)c(Cl)c(-c2ccc(C(=O)Nc3nnc[nH]3)c3nccnc23)c1Cl [Example 17, 8-(2,6-Dichloro-3,5-dimethoxy-phenyl)-quinoxaline-5-carboxylic acid (4H-[1,2,4]triazol-3-yl)-amide] | 500 to 50000 nM
COc1cc(OC)c(Cl)c(-c2ccc(C(=O)Nc3ccc(N4CCN(C(C)C)CC4)nc3)c3nccnc23)c1Cl [Example 33, 8-(2,6-Dichloro-3,5-dimethoxy-phenyl)-quinoxaline-5-carboxylic acid [6-(4-isopropyl-piperazin-1-yl)-pyridin-3-yl]-amide] | < 100 nM
COc1cc(OC)c(Cl)c(-c2ccc(C(=O)Nc3ccc(N(C)C4CCN(C)CC4)nc3)c3nccnc23)c1Cl [Example 37, 8-(2,6-Dichloro-3,5-dimethoxy-phenyl)-quinoxaline-5-carboxylic acid {6-[methyl-(1-methyl-piperidin-4-yl)-amino]-pyridin-3-yl}-amide] | < 100 nM
COc1ccc(Cl)c(-c2ccc(C(=O)Nc3ccc(OCCN(C)C)cc3)c3nccnc23)c1 [Example 65, 8-(2-Chloro-5-methoxy-phenyl)-quinoxaline-5-carboxylic acid [4-(2-dimethylamino-ethoxy)-phenyl]-amide] | 500 to 50000 nM
CCN1CCN(c2ccc(NC(=O)c3ccc(-c4c(C)cccc4C)c4nccnc34)cc2)CC1 [Example 72, 8-(2,6-Dimethyl-phenyl)-quinoxaline-5-carboxylic acid [4-(4-ethyl-piperazin-1-yl)-phenyl]-amide] | 500 to 50000 nM
COc1cc(OC)c(Cl)c(-c2ccc(C(=O)Nc3cccnc3)c3ncc(N(C)CCN(C)C)nc23)c1Cl [Example 87, 8-(2,6-Dichloro-3,5-dimethoxy-phenyl)-2-[(2-dimethylamino-ethyl)-methyl-amino]-quinoxaline-5-carboxylic acid pyridin-3-ylamide] | 500 to 50000 nM
COc1cc(OC)c(F)c(-c2ccc(C(=O)Nc3ccc(CN4CCN(C)CC4)nc3)c3nccnc23)c1F [Example 89, 8-(2,6-Difluoro-3,5-dimethoxy-phenyl)-quinoxaline-5-carboxylic acid [6-(4-methyl-piperazin-1-ylmethyl)-pyridin-3-yl]-amide] | < 100 nM
COc1cc(OC)c(F)c(-c2ccc(C(=O)Nc3cccnc3)c3nccnc23)c1F [Example 90, 8-(2,6-Difluoro-3,5-dimethoxy-phenyl)-quinoxaline-5-carboxylic acid pyridin-3-ylamide] | 100 to 500 nM
COc1cc(OC)cc(-c2ccc(C(=O)Nc3ccc(CN4CCNCC4)cn3)c3nccnc23)c1 [Example 117] | 500 to 50000 nM
COc1cc(OC)c(Cl)c(-c2ccc(C(=O)Nc3ccn(CCN(C)C)c3)c3nccnc23)c1Cl [Example 121, 8-(2,6-Dichloro-3,5-dimethoxy-phenyl)-quinoxaline-5-carboxylic acid [1-(2-dimethylamino-ethyl)-1H-pyrrol-3-yl]-amide] | 500 to 50000 nM
COc1cc(OC)c(F)c(-c2ccc(C(=O)Nc3ccc(CN4CCS(=O)(=O)CC4)cn3)c3nccnc23)c1F [Example 140, 8-(2,6-Difluoro-3,5-dimethoxy-phenyl)-quinoxaline-5-carboxylic acid [5-(1,1-dioxo-thiomorpholin-4-ylmethyl)-pyridin-2-yl]-amide] | < 100 nM
COc1cc(OC)c(F)c(-c2ccc(C(=O)Nc3nc(CN4CCN(C)CC4)c[nH]3)c3nccnc23)c1F [Example 141, 8-(2,6-Difluoro-3,5-dimethoxy-phenyl)-quinoxaline-5-carboxylic acid [4-(4-methyl-piperazin-1-ylmethyl)-1H-imidazol-2-yl]-amide] | < 100 nM

Other lines, results leading:

IC50 | Structure (SMILES)
< 100 nM | CCN1CCN(c2ccc(NC(=O)c3ccc(-c4c(Cl)c(OC)cc(OC)c4Cl)c4nccnc34)cc2)CC1 [Example 1, 8-(2,6-Dichloro-3,5-dimethoxy-phenyl)-quinoxaline-5-carboxylic acid [4-(4-ethylpiperazin-1-yl)-phenyl]-amide]
< 100 nM | COc1cc(OC)c(Cl)c(-c2ccc(C(=O)Nc3ccc(CN(C)CCN(C)C)cn3)c3nccnc23)c1Cl [Example 81, 8-(2,6-Dichloro-3,5-dimethoxy-phenyl)-quinoxaline-5-carboxylic acid (5-{[(2-dimethylamino-ethyl)-methyl-amino]-methyl}-pyridin-2-yl)-amide]
< 100 nM | CCN1CCN(Cc2ccc(NC(=O)c3ccc(-c4c(F)c(OC)cc(OC)c4F)c4nccnc34)cn2)CC1 [Example 88, 8-(2,6-Difluoro-3,5-dimethoxy-phenyl)-quinoxaline-5-carboxylic acid [6-(4-ethyl-piperazin-1-ylmethyl)-pyridin-3-yl]-amide]
100 to 500 nM | COc1cc(OC)c(Cl)c(-c2ccc(C(=O)Nc3ccc(CN4CCS(=O)(=O)CC4)cn3)c3nccnc23)c1Cl [Example 104, 8-(2,6-Dichloro-3,5-dimethoxy-phenyl)-quinoxaline-5-carboxylic acid [5-(1,1-dioxothiomorpholin-4-ylmethyl)-pyridin-2-yl]-amide]
500 to 50000 nM | CCN1CCN(Cc2ccc(NC(=O)c3ccc(-c4cc(OC)cc(OC)c4)c4nccnc34)nc2)CC1 [Example 115, 8-(3,5-Dimethoxy-phenyl)-quinoxaline-5-carboxylic acid [5-(4-ethyl-piperazin-1-ylmethyl)-pyridin-2-yl]-amide]
500 to 50000 nM | COc1cc(OC)c(Cl)c(-c2ccc(C(=O)Nc3nccn3Cc3ccccc3)c3ncccc23)c1Cl [Example 160, 5-(2,6-Dichloro-3,5-dimethoxy-phenyl)-quinoline-8-carboxylic acid (1-benzyl-1H-imidazol-2-yl)-amide]
< 100 nM | COc1cc(OC)c(Cl)c(-c2ccc(C(=O)Nc3ncc[nH]3)c3ncccc23)c1Cl [Example 161, 5-(2,6-Dichloro-3,5-dimethoxy-phenyl)-quinoline-8-carboxylic acid (1H-imidazol-2-yl)-amide]
100 to 500 nM | COc1cc(OC)c(Cl)c(-c2ccc(C(=O)Nc3cnc[nH]3)c3ncccc23)c1Cl [Example 162, 5-(2,6-Dichloro-3,5-dimethoxy-phenyl)-quinoline-8-carboxylic acid (3H-imidazol-4-yl)-amide]
500 to 50000 nM | COc1cc(OC)c(Cl)c(-c2ccc(C(=O)Nc3nnc[nH]3)c3ncccc23)c1Cl [Example 163]
< 100 nM | COc1cc(OC)c(Cl)c(-c2ccc(C(=O)Nc3ccc(CN4CCN(C)CC4)cn3)c3ncccc23)c1Cl [Example 164, 5-(2,6-Dichloro-3,5-dimethoxy-phenyl)-quinoline-8-carboxylic acid [5-(4-methyl-piperazin-1-ylmethyl)-pyridin-2-yl]-amide]
100 to 500 nM | CCN1CCN(Cc2ccc(NC(=O)c3ccc(-c4c(Cl)c(OC)cc(OC)c4Cl)c4cccnc34)nc2)CC1 [Example 165, 5-(2,6-Dichloro-3,5-dimethoxy-phenyl)-quinoline-8-carboxylic acid [5-(4-ethyl-piperazin-1-ylmethyl)-pyridin-2-yl]-amide]
100 to 500 nM | COc1cc(OC)c(Cl)c(-c2ccc(C(=O)Nc3ccc(CN4CCN(C)CC4)nc3)c3ncccc23)c1Cl [Example 168, 5-(2,6-Dichloro-3,5-dimethoxy-phenyl)-quinoline-8-carboxylic acid [6-(4-methyl-piperazin-1-ylmethyl)-pyridin-3-yl]-amide]
100 to 500 nM | CCN1CCN(Cc2ccc(NC(=O)c3ccc(-c4c(Cl)c(OC)cc(OC)c4Cl)c4cccnc34)cn2)CC1 [Example 169, 5-(2,6-Dichloro-3,5-dimethoxy-phenyl)-quinoline-8-carboxylic acid [6-(4-ethyl-piperazin-1-ylmethyl)-pyridin-3-yl]-amide]
500 to 50000 nM | COc1cc(OC)c(Cl)c(-c2ccc(C(=O)Nc3ccc(CN4CCNCC4)nc3)c3ncccc23)c1Cl [Example 171, 5-(2,6-Dichloro-3,5-dimethoxy-phenyl)-quinoline-8-carboxylic acid (6-piperazin-1-ylmethyl-pyridin-3-yl)-amide]
